Series [1] has as its system liver. The experiment in a line: Fluc activity in the liver of mice administered Fluc mRNA-loaded lipid nanoparticles. Format: in vivo, BALB/c mice. The following applies: Example 31, Fig. 10; Fluc mRNA-loaded lipid nanoparticles containing 3 mol% DSPC; N = 3. The procedure: (§1) Lipid nanoparticles were administered to mice by intravenous injection into the tail vein using a 27G needle. Unless otherwise specified, BALB/c mice (4 to 5 weeks old, female) were used.
(§2) First, BALB/c mice (female, 4 weeks old) were intravenously injected with lipid nanoparticles encapsulating Fluc mRNA (Fluc mRNA-loaded lipid nanoparticles) at a dose of 0.1 mg mRNA/kg. Six hours after intravenous injection, the mice were euthanized, each tissue was collected, frozen in liquid nitrogen, and stored at -80°C. The tissues were homogenized in passive lysis buffer (manufactured by Promega) using a bead-type cell disruptor (Micro Smash MS-100R, manufactured by TOMY Seiko). Tissue debris was removed by centrifugation, and the supernatant was collected. Fluc activity in the supernatant was measured using the Luciferase Assay System (E1500, manufactured by Promega) according to the manufacturer's protocol. Luminescence was measured using a luminometer (Luminescencer-PSN, manufactured by ATTO). Protein concentration was determined using a commercially available assay kit (BCA Protein Assay Kit, manufactured by Pierce). Fluc activity was expressed as relative light units (RLU) per mg of protein.
Subsequently, lipid nanoparticles encapsulating Fluc mRNA prepared using TxT-5-5A10, TxT-5-5A12, TxT-5-5A12β, TxT-5-5A14, and TxT-5-5A16 were administered to mice to evaluate luciferase expression levels (Fluc activity) in various tissues. Specifically, each Fluc mRNA-loaded lipid nanoparticle was administered to Balb/c mice at a dose of 0.1 mg mRNA/kg. Six hours after administration, the mice were euthanized, and their organs were collected to measure Fluc activity (RLU/mg protein) (N = 2 or 4).

In a further series the test system is various tissues. Briefly: Fluc activity in various tissues of mice administered Fluc mRNA-loaded lipid nanoparticles. Format: in vivo, BALB/c mice. The conditions noted are these: Example 31, Fig. 10; Fluc mRNA-loaded lipid nanoparticles containing 3 mol% DSPC; N = 3. The procedure:
as §1
as §2, with “protein. […]” for “protein.”

Series [2] in a line: Average particle size and polydispersity index of lipid nanoparticles (dynamic light scattering). Format: physicochemical. The procedure: (§3) The average particle size (number average value), ζ-average particle size, and polydispersity index (PdI) of the lipid nanoparticles in PBS(-) (pH 7.4), and the zeta potential in 10 mM HEPES buffer (pH 7.4) were measured using an analyzer "Zetasizer Nano ZS ZEN3600" (manufactured by Malvern) utilizing dynamic light scattering.

Series [3] can be described thus: Zeta potential of lipid nanoparticles. Format: physicochemical. The procedure:
as §3

Series [4] in a line: Encapsulation rate of lipid nanoparticles (Ribogreen). Format: physicochemical. The procedure, abridged:
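Ribogreen fluorescence (Ex/Em 500/525 nm) measured after mixing sample 1:1 with 10 mM HEPES pH 7.4 buffer with or without Triton X-100. mRNA quantified from a calibration curve of known mRNA dilutions; encapsulation rate (%) calculated from Triton(+) versus Triton(−) signals.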

The test system of another series is factor VII (F7). The following applies: mouse liver; siRNA; cited from earlier work.
Series [5] in a line: Apparent pKa of lipid nanoparticles (TNS).
A further series deals with spleen. The experiment in a line: Fluc activity in the spleen of mice administered Fluc mRNA-loaded lipid nanoparticles. It is filed as in vivo, BALB/c mice. The following applies: Example 22, Fig. 1; TxT/DSPC/chol/PEG-DMG=50/15/35/1.5 (mol%); 0.1 mg mRNA/kg intravenous; six hours after administration; comparison among TxT lipids. The procedure:
as §1
as §2, with “protein. […]” for “protein.”

The test system of series [6] is liver. Briefly: EGFP expression in liver tissue sections of mice administered EGFP mRNA-loaded lipid nanoparticles (confocal microscopy). It is filed as in vivo, Balb/c mice. The following applies: Example 27, Fig. 6; EGFP mRNA-loaded lipid nanoparticles TxT/DSPC/chol/PEG-DMG=50/3/47/1.5 (mol%); 24 hours post-administration. The procedure:
Subsequently, each EGFP mRNA-loaded lipid nanoparticle was administered to Balb/c mice at a dose of 0.2 mg mRNA/kg. At 23 hours and 50 minutes post-administration, fluorescently labeled lectin (DyLight-649 Lycopersicon (Tomato) Lectin) was intravenously injected via the tail vein at 40 µg/mouse to fluorescently label vascular endothelial cells. At 24 hours after administration of the lipid nanoparticles, the mice were euthanized, and their livers were collected to prepare tissue sections. For nuclear staining, the tissue sections were immersed in a nuclear staining solution (1 µg/mL Hoechst 33342 dissolved in PBS(-)), cooled on ice, and incubated for at least 30 minutes in the dark. The stained tissue sections were then observed using a confocal laser scanning microscope. Subsequently, in the same manner as Example 26, each EGFP mRNA-loaded lipid nanoparticle was administered to Balb/c mice. At 23 hours and 50 minutes post-administration, fluorescently labeled lectin was administered. At 24 hours after administration of the lipid nanoparticles, the mice were euthanized, and their livers were collected to prepare tissue sections. Each tissue section was observed using a confocal laser scanning microscope. In the figure, the upper panels show fluorescence images of EGFP, and the lower panels show fluorescence images of vascular endothelial cells (fluorescently labeled lectin).

The mark [7] stands for this setting: Table 4, Fluc mRNA-loaded lipid nanoparticles, TxT-5-5A14/DSPC/chol/PEG-DMG=50/3/47/1.5, SM-102, ALC-0315 or MC3/DSPC/chol/PEG-DMG=50/10/40/1.5 (mol%).
The mark [8] stands for this setting: Table 1, Fluc mRNA-loaded lipid nanoparticles, TxT/DSPC/chol/PEG-DMG=50/15/35/1.5 (mol%).
Where [9] appears, read: Table 3, Fluc mRNA-loaded lipid nanoparticles, TxT/DSPC/chol/PEG-DMG=50/3/47/1.5 (mol%).
Where [10] appears, read: Table 5, EGFP mRNA-loaded lipid nanoparticles, TxT/DSPC/chol/PEG-DMG=50/3/47/1.5 (mol%), total flow rate 3.0 mL/min.

Broadly, the pKa is the pH at which an ionisable group is half protonated.

On to “2-((2-(2-((diheptylamino)methyl)cyclohexyl)acetoxy)methyl)-2-(3-(piperidin-1-yl)propanamido)propane-1,3-diyl bis(2-(diheptylcarbamoyl)cyclohexane-1-carboxylate) [TxT-5-4(6)A14]”, for which the “Fluc activity in the liver relative to spleen and lung” value in the series on liver [1] is reported as “particularly high activity confirmed in the liver”. Besides, the “Fluc activity in the liver, spleen, and lung” value in the series on various tissues was “Fluc activity was observed in the organs, i.e., liver, spleen, and lungs”.
Consider `CCCCC/C=C\C/C=C\CCCCCCCCC(CCCCCCCC/C=C\C/C=C\CCCCC)OC(=O)CCCN(C)C` [MC3, DLin-MC3-DMA, reference compound], for which, in series [2] (setting [7]), the Pdl is reported as 0.20, the “number average particle size” value came out at 51.8 nm and the ζ-average particle size came out at 83.6 nm. This compound also displayed a ζ-potential in series [3] (setting [7]) of -6.8 mV. In series [4] (setting [7]), this compound displayed a mRNA concentration of 0.021 µg/µL and a mRNA encapsulation rate of 98.8%. Besides, the “ED50 in factor VII (F7) knockdown” value in the series with factor VII (F7) was 0.005 mg siRNA/kg. For the same compound, the pKa in series [5] (setting [7]) was determined as 6.23.
For `CCCCC/C=C\C/C=C\CCCCCCCCOC1(OCCCCCCCC/C=C\C/C=C\CCCCC)CCN(C)CC1` [YSK05], in the series with factor VII (F7), the “ED50 in factor VII (F7) knockdown” value is recorded as 0.06 mg siRNA/kg.
As to `CCCCCCN(CCCCCC)C(=O)CCCC(=O)OCC(COC(=O)CCCC(=O)N(CCCCCC)CCCCCC)(COC(=O)CCCC(=O)N(CCCCCC)CCCCCC)NC(=O)CCN1CCCCC1` [TxT-5-5A12, 2-(((5-(dihexylamino)-5-oxopentanoyl)oxy)methyl)-2-(3-(piperidin-1-yl)propanamido)propane-1,3-diyl bis(5-(dihexylamino)-5-oxopentanoate)], the Pdl came out at 0.08 in series [2] (setting [8]), 0.10 in [2] (setting [9]) and 0.13 in [2] (setting [10]). Moreover, the entries for the “number average particle size” value in series [2] (setting [8]), in [2] (setting [9]) and in series [2] (setting [10]) were 124.5 nm, 124.5 nm and 80.2 nm, respectively. Further, the values for the ζ-average particle size in [2] (setting [8]), in series [2] (setting [9]) and in series [2] (setting [10]) were 155.2 nm, 155.2 nm and 114.4 nm, respectively. For the same compound, the ζ-potential was -6.7 mV in series [3] (setting [8]), -6.7 mV in [3] (setting [9]) and -9.4 mV in series [3] (setting [10]). Also, the mRNA concentration in series [4] (setting [8]), in series [4] (setting [9]) and in series [4] (setting [10]) was 0.019 µg/µL in each case. Besides, the figures for the mRNA encapsulation rate in [4] (setting [8]), in [4] (setting [9]) and in series [4] (setting [10]) were 85.9%, 85.9% and 95.5%, respectively. Also, in the series with spleen, the “Fluc activity in the spleen” value is reported as “highest Fluc activity in the spleen”. Also, the “fluorescence of EGFP in the liver tissues” value in the series on liver [6] is “fluorescence of EGFP was observed”. Moreover, the pKa in series [5] (Table 1, apparent pKa of Fluc mRNA-loaded lipid nanoparticles, TxT/DSPC/chol/PEG-DMG=50/15/35/1.5 (mol%)) amounted to 6.44; in series [5] (setting [9]), 6.58.

The values above are taken from EP4722195A1, “PH-SENSITIVE CATIONIC LIPID AND LIPID NANOPARTICLES” (National University Corporation Hokkaido University, priority 2023, dated 2024).
